Structures can show the parent of a compound that is named as a salt.
Experiments:
mTOR = target: T1, mTOR (Homo sapiens, UniProt P42345); assay: mTOR biochemical assay (LanthaScreen TR-FRET); settings: ATP 3 μM, maximal concentration 100 nM
T1 construct: purchased ThermoFisher PR8683B
Protocol: mTOR Kinase reactions were performed in a 10 μL volume in low-volume 384-well plates. Typically, PerkinElmer model 6008260 plates were used. The composition of the 1× kinase reaction buffer was: 50 mM HEPES pH 7.5, 0.01% Tween 20, 1 mM EGTA, 10 mM MnCl2, and 2 mM DTT. The solution of mTOR enzyme (ThermoFisher, #PR8683B; the final mTOR concentration: 0.5 μg/mL) was added, and the compounds were serially diluted to the final maximal concentration of 100 nM (3 fold series dilution, a total of 10 doses). GFP-4E-BP1 (the final concentration: 0.4 μM) and the ATP solution (the final ATP concentration: 3 μM) were added to the 384-well plate. The plate was incubated at 25° C. for 1 hour, and 10 μL of the EDTA solution (20 mM) and Tb-labeled anti-p4E-BP1 antibody (4 nM) in TR-FRET dilution buffer were added to each well. The plate was sealed, incubated 30 min at 25° C., and read on a plate reader configured for LanthaScreen™ TRFRET.

hERG = target: T2, hERG (Homo sapiens, UniProt Q12809); assay: In-vitro hERG inhibition assay (manual patch clamp, hERG-T-REx HEK 293 cells); type: cell-based
T2 construct: host or cells: T-REx HEK293
Protocol: In-Vitro hERG Inhibition Assay:
The hERG-T-REx™ HEK 293 cells (Invitrogen, K1236) were generated by transfecting the hERG coding sequence in the Tet-regulated expression vector pT-Rex-DEST30 into cells expressing the Tet-repressor (T-Rex™ HEK293), thereby producing cells that can be induced to express high level of hERG channels. The cells were cultured in a medium containing of 85% DMEM, 10% dialyzed FBS, 0.1 mM NEAA, 25 mM HEPES, 100 U/mL Penicillin-Streptomycin, 5 μg/mL Blasticidin, and 400 μg/mL Geneticin. The cells were split using TrypLE™ Express (Gibco, 12604) about three times a week and maintained between ˜40% to ˜80% confluence. Before the assay, the cells were induced with doxycycline (Sigma, D9891) at 1 μg/mL for 48 hours. On the experiment day, the induced cells were resuspended and plated onto the coverslips at 5×10^5 cells/per 6 cm cell culture dish prior to use. The hERG channel-mediated current was acquired by manual patch clamp recording systems equipped with amplifiers (HEKA, EPC10 and Molecular Devices, multiclamp 700B) and the inverted phase contrast microscope (Olympus, IX51/71/73). Glass pipettes were prepared by micropipette puller (Sutter, P97 and Narishige, PC-10) and qualified by the pipette resistance in the range of […]. The internal pipette solution was 140 mM KCl, 2 mM MgCl2, 10 mM EGTA, 5 mM MgATP, and 10 mM HEPES (pH adjusted to 7.35 with KOH), and the external buffer was 132 mM NaCl, 4 mM KCl, 3 mM CaCl2), 0.5 mM MgCl2, 11.1 mM glucose, and 10 mM HEPES (pH adjusted to 7.35 with NaOH). The whole-cell configuration was maintained with access resistance continuously monitored (<15 M[…]). The hERG current was elicited by depolarizing membrane to +30 mV for 4.8 sec, and the voltage was set back to −50 mV for 5.2 sec to remove the inactivation and measure the deactivating tail current. The maximum amount of tail current size was used to determine hERG current amplitude. To evaluate the hERG inhibition, the blank vehicle and test articles were perfused to cells under whole-cell recording configuration through the liquid perfusion system (ALA, VM8 gravity-flow delivery system). For dose response assay, test article was applied to the cells accumulatively from low to high concentrations. A positive control (Dofetilide) was used in the experiments to ensure the performance of the cells and operations as major part of method validation. The percentage hERG current inhibition was fitted against dose concentrations to build the dose-response curve and determine IC50.

T2 sequence (Q12809 whole entry): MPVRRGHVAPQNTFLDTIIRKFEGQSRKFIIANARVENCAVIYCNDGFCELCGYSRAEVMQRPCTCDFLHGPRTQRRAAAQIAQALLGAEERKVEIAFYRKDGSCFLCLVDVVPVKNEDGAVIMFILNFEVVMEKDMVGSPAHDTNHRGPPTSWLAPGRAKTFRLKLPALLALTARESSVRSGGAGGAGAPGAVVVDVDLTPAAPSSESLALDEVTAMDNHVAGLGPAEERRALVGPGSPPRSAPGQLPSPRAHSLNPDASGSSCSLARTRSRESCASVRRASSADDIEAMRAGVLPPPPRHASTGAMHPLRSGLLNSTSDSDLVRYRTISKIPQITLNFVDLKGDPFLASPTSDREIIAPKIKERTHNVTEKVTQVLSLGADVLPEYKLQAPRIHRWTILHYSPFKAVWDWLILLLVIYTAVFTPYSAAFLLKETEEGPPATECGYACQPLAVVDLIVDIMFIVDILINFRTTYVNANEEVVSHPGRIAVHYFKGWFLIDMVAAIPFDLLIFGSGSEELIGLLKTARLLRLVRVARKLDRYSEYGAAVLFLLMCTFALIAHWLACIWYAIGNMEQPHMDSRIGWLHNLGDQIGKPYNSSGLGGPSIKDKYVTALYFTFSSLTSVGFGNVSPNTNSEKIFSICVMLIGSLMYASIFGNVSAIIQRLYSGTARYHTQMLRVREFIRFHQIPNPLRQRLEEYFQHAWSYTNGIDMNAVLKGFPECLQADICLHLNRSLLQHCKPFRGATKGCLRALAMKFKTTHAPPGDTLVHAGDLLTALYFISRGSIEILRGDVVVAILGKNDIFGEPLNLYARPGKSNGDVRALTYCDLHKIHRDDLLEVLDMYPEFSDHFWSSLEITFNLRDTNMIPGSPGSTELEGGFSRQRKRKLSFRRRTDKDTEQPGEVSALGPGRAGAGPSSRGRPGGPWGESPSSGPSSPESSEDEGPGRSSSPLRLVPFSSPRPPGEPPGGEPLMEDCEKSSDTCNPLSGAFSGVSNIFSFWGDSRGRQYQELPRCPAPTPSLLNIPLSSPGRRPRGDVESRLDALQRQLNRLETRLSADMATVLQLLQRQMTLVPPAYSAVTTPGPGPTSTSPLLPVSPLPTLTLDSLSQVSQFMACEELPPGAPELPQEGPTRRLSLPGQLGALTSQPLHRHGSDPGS
T1 sequence (P42345 1360-2549 limits assumed): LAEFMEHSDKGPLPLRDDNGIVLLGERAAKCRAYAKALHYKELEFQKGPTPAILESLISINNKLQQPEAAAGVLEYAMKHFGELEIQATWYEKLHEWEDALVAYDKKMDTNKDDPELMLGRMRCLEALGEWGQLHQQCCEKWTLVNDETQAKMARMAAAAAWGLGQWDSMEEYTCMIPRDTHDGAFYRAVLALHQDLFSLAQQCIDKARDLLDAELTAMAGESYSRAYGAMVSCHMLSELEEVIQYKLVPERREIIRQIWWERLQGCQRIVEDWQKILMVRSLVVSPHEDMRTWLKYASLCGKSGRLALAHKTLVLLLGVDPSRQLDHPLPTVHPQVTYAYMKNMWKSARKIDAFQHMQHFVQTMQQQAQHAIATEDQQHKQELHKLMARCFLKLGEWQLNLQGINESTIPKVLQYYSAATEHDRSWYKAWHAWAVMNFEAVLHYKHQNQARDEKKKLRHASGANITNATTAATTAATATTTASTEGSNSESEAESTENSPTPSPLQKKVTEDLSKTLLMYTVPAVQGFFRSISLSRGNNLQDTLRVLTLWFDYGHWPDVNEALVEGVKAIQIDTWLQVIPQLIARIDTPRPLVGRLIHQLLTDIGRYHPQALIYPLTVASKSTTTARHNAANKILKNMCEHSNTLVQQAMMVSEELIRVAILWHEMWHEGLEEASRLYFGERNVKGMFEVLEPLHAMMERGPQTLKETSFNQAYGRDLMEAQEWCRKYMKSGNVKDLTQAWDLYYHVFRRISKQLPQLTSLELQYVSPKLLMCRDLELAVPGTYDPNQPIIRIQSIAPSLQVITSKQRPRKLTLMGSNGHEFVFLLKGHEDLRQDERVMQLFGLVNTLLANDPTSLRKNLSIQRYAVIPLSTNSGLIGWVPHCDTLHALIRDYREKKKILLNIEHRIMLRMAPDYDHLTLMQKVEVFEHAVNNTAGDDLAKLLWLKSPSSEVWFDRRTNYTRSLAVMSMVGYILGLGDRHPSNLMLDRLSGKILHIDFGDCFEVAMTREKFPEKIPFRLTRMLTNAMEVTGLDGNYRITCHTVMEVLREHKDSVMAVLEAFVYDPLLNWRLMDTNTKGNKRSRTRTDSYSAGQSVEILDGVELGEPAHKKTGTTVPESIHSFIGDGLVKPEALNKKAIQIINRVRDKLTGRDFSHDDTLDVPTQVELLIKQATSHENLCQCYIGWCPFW

SMILES	IC50 (mTOR) [nM]	IC50 (hERG; tail current) [µM]	IC50 (hERG; human, hERG-T-REx HEK 293 cells expressing hERG, pH 7.35, tail current) [µM]
CC(C)NCCOc1ncc(-c2cc3c4c(cnc3cc2F)N(C)C(=O)C42CCC2)cc1NS(C)(=O)=O [Compound 569, N-(5-(7′-Fluoro-3′-methyl-2′-oxo-2′,3′-dihydrospiro[cyclobutane-1,1′-pyrrolo[2,3-c]quinolin]-8′-yl)-2-(2-(isopropylamino)ethoxy)pyridin-3-yl)methanesulfonamide]			> 30
CN1C(=O)C2(CCC2)c2c1cnc1ccc(-c3cnc(N4CC(N(C)C)C4)c(NS(C)(=O)=O)c3)cc21 [Compound 574, N-(2-(3-(Dimethylamino)azetidin-1-yl)-5-(3′-methyl-2′-oxo-2′,3′-dihydrospiro[cyclobutane-1,1′-pyrrolo[2,3-c]quinolin]-8′-yl)pyridin-3-yl)methanesulfonamide hydrochloride]	19.9	> 30	
CC(C)NCCOc1ncc(-c2cc3c(cc2F)ncc2c3[C@]3(C[C@@H](OCc4ccccc4)C3)C(=O)N2C)cc1NS(C)(=O)=O [Compound 567, trans-N-(5-(3-(Benzyloxy)-7′-fluoro-3′-methyl-2′-oxo-2′,3′-dihydrospiro[cyclobutane-1,1′-pyrrolo[2,3-c]quinolin]-8′-yl)-2-(2-(isopropylamino)ethoxy)pyridin-3-yl)methanesulfonamide]	> 100	5.5	
CC[C@H]1C[C@]2(C1)C(=O)N(C)c1cnc3cc(F)c(-c4cnc(OCCNC(C)C)c(NS(C)(=O)=O)c4)cc3c12 [Compound 573, cis-N-(5-(3-Ethyl-7′-fluoro-3′-methyl-2′-oxo-2′,3′-dihydrospiro[cyclobutane-1,1′-pyrrolo[2,3-c]quinolin]-8′-yl)-2-(2-(isopropylamino)ethoxy)pyridin-3-yl)methanesulfonamide]	> 100	3	
CC[C@H]1C[C@@]2(C1)C(=O)N(C)c1cnc3cc(F)c(-c4cnc(OCCNC(C)C)c(NS(C)(=O)=O)c4)cc3c12 [Compound 566, trans-N-(5-(3-Ethyl-7′-fluoro-3′-methyl-2′-oxo-2′,3′-dihydrospiro[cyclobutane-1,1′-pyrrolo[2,3-c]quinolin]-8′-yl)-2-(2-(isopropylamino)ethoxy)pyridin-3-yl)methanesulfonamide]	> 100	2.1	

Now from value to compound, other results behind:

IC50 (mTOR) [nM]	SMILES	IC50 (hERG; tail current) [µM]	IC50 (hERG; human, hERG-T-REx HEK 293 cells expressing hERG, pH 7.35, tail current) [µM]
> 100	CC(C)NCCOc1ncc(-c2cc3c4c(cnc3cc2F)N(C)C(=O)C42CN(C(C)C)C2)cc1NS(C)(=O)=O [Compound 571, N-(5-(7′-Fluoro-1-isopropyl-3′-methyl-2′-oxo-2′,3′-dihydrospiro[azetidine-3,1′-pyrrolo[2,3-c]quinolin]-8′-yl)-2-(2-(isopropylamino)ethoxy)pyridin-3-yl)methanesulfonamide]	5.6	
> 100	CC(C)NCCOc1ncc(-c2cc3c4c(cnc3cc2F)N(C)C(=O)C42CCC2)cc1NS(=O)(=O)C(C)C [Compound 568, N-(5-(7′-Fluoro-3′-methyl-2′-oxo-2′,3′-dihydrospiro[cyclobutane-1,1′-pyrrolo[2,3-c]quinolin]-8′-yl)-2-(2-(isopropylamino)ethoxy)pyridin-3-yl)propane-2-sulfonamide]	14	
> 100	CCS(=O)(=O)Nc1cc(-c2cc3c4c(cnc3cc2F)N(C)C(=O)C42CCC2)cnc1OCCNC(C)C [Compound 570, N-(5-(7′-Fluoro-3′-methyl-2′-oxo-2′,3′-dihydrospiro[cyclobutane-1,1′-pyrrolo[2,3-c]quinolin]-8′-yl)-2-(2-(isopropylamino)ethoxy)pyridin-3-yl)ethanesulfonamide]	10.5	
> 100	CC(C)NCCOc1ncc(-c2cc3c(cc2F)ncc2c3[C@]3(C[C@H](OCc4ccccc4)C3)C(=O)N2C)cc1NS(C)(=O)=O [Compound 572, cis-N-(5-(3-(Benzyloxy)-7′-fluoro-3′-methyl-2′-oxo-2′,3′-dihydrospiro[cyclobutane-1,1′-pyrrolo[2,3-c]quinolin]-8′-yl)-2-(2-(isopropylamino)ethoxy)pyridin-3-yl)methanesulfonamide]	7.5	

Source: US20220142995A1, “DUAL ATM AND DNA-PK INHIBITORS FOR USE IN ANTI-TUMOR THERAPY” (XRAD Therapeutics, Inc., priority 2019, published 2022)
